The source made the active and inactive calls. The rule behind the calls is not given here.
Key:
[1] = molecular target: T1, Proteasome subunit beta type-9 (Mus musculus) (UniProt P28076); test: Inhibition of LMP2 in mouse BV-2 cells using Ac-PAL-AMC as substrate at 0.3 to 1 uM measured after 24 hrs by fluorescence based SpectraMax M5e plate reader; type: cell-based; details: dose 0.3-1 µM
T1 sequence (whole entry): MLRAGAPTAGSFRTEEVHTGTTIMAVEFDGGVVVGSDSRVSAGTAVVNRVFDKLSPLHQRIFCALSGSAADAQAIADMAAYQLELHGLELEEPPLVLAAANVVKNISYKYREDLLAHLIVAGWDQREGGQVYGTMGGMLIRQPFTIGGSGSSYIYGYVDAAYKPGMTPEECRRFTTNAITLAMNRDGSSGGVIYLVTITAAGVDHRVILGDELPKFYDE

[2] = In vivo inhibition of LMP2 activity in BALB/c mouse blood at 150 mg/kg, po measured after 6 hrs post dose relative to control; type: functional
[3] = Stability in human plasma; type: ADME, cell-free
[4] = Toxicity in BALB/c mouse assessed as tremor at 100 mg/kg, po; type: organism-based; details: in vivo
[5] = Toxicity in BALB/c mouse assessed as paralysis at 40 mg/kg, iv; type: organism-based; details: in vivo
[6] = Cytotoxicity against human ARPE-19 cells assessed as reduction in cell viability incubated for 96 hrs by CellTiter 96 Aqueous One Solution Cell Proliferation Assay; type: toxicity, cell-based
[7] = Mutagenicity in Salmonella typhimurium TA100 at 0.01 to 100 uM incubated for 90 mins in presence of liver S9 fraction by AMES test; type: toxicity, subcellular; details: salmonella enterica subsp. enterica serovar typhimurium, s9, 1.5 h, dose 0.01-100 µM
[8] = AUC (0 to last) in BALB/c mouse at 150 mg/kg, po measured after 15 to 360 mins by LC-MS/MS analysis; type: ADME, organism-based; details: in vivo, time 15-360 min
[9] = In vivo inhibition of LMP2 activity in BALB/c mouse brain at 150 mg/kg, po measured after 6 hrs post dose relative to control; type: functional
[10] = Half life in BALB/c mouse at 150 mg/kg, po measured after 15 to 360 mins by LC-MS/MS analysis; type: ADME, organism-based; details: in vivo, time 15-360 min
[11] = AUC infinity in BALB/c mouse at 40 mg/kg, iv measured upto 1440 mins by LC-MS/MS analysis; type: ADME, organism-based; details: in vivo, 24 h
[12] = Toxicity in BALB/c mouse assessed as tremor at 40 mg/kg, iv; type: organism-based; details: in vivo
[13] = Volume of distribution at steady state in BALB/c mouse at 40 mg/kg, iv measured upto 1440 mins by LC-MS/MS analysis; type: ADME, organism-based; details: in vivo, 24 h
[14] = Drug uptake in BALB/c mouse spleen at 40 mg/kg, iv measured after 2 hrs; type: ADME, organism-based; details: in vivo
[15] = Drug recovery in human plasma; type: ADME, cell-free

## CC(C)C[C@H](NC(=O)[C@@H]1COCCCCCC(=O)N2C[C@H](F)C[C@H]2C(=O)N1)C(=O)[C@@]1(C)CO1
[1]
  inhibition: Active
[2]
  inhibition in vivo at 150 mg/kg: 90%
[3]
  Stability: 78%
[4]
  Activity: Non-Toxic
[5]
  Activity: Non-Toxic
[6]
  IC50 at 96 h: > 100 µM
[7]
  Activity: Non-Toxic
[8]
  AUClast: 3553 ng·h/mL
[9]
  inhibition in vivo at 150 mg/kg: 21%
[10]
  t1/2: 47.5 min
[11]
  AUC: 9689 ng·h/mL
[12]
  Activity: Non-Toxic
[13]
  Vdss: 2.572 L/kg
[14]
  Drug uptake: Active
[15]
  Drug recovery: 74%

Reference: ChEMBL document CHEMBL5506017, “Brain-Permeable Immunoproteasome-Targeting Macrocyclic Peptide Epoxyketones for Alzheimer's Disease” (J Med Chem, 2024)
